Measured values taken from patent publication US7872018B2, “Compounds and methods for kinase modulation, and indications therefor” (Plexxikon, Inc., priority 2006, dated 2011).

Legend:
Kit = molecular target: T1, Kit (Homo sapiens, UniProt P10721); assay: c-kit biochemical assay (AlphaScreen or 33P-ATP); details: under the test conditions employed; read-out: IC50 toward kinase Kit
T1 construct: P1332.N6 BI PTP KIT M552-K948-X COD; made in house; host or cells: E. coli BL21(DE3)RIL, co-expressed with PTP1B
T1 sequence (P10721 552-948): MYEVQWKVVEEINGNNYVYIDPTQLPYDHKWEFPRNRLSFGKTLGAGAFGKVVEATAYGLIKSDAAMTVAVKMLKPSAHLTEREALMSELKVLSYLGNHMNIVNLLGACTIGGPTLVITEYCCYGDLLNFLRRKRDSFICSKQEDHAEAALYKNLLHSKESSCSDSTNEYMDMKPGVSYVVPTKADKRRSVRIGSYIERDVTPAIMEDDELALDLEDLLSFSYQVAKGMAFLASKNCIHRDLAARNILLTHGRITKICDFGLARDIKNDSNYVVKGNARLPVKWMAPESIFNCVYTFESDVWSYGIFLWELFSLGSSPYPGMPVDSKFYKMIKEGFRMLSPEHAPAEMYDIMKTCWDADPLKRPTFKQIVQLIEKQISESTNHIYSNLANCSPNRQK
Experimental: C-kit kinase was at 1 ng per sample.
The c-kit enzyme used in the above assay was either obtained from Cell Signaling Technology (Cat. #7754) or was prepared as follows: A plasmid encoding kit (DNA and encoded protein sequences shown below) was engineered using common polymerase chain reaction (PCR) methods. Complementary DNA cloned from various human tissues were purchased from Invitrogen, and these were used as substrates in the PCR reactions. Specific custom synthetic oligonucleotide primers were designed to initiate the PCR product, and also to provide the appropriate restriction enzyme cleavage sites for ligation with the plasmids. The entire sequence encoding the enzyme was made through a gene synthesis procedure, using custom synthetic oligonucleotides covering the entire coding sequence (Invitrogen, see below).

Fms = molecular target: T2, Fms (Homo sapiens, UniProt P07333); assay: Fms biochemical assay (AlphaScreen or 33P-ATP); details: under the test conditions employed; read-out: IC50 toward kinase Fms
T2 construct: purchased Upstate Biotech 14-551
T2 sequence (P07333 20-972): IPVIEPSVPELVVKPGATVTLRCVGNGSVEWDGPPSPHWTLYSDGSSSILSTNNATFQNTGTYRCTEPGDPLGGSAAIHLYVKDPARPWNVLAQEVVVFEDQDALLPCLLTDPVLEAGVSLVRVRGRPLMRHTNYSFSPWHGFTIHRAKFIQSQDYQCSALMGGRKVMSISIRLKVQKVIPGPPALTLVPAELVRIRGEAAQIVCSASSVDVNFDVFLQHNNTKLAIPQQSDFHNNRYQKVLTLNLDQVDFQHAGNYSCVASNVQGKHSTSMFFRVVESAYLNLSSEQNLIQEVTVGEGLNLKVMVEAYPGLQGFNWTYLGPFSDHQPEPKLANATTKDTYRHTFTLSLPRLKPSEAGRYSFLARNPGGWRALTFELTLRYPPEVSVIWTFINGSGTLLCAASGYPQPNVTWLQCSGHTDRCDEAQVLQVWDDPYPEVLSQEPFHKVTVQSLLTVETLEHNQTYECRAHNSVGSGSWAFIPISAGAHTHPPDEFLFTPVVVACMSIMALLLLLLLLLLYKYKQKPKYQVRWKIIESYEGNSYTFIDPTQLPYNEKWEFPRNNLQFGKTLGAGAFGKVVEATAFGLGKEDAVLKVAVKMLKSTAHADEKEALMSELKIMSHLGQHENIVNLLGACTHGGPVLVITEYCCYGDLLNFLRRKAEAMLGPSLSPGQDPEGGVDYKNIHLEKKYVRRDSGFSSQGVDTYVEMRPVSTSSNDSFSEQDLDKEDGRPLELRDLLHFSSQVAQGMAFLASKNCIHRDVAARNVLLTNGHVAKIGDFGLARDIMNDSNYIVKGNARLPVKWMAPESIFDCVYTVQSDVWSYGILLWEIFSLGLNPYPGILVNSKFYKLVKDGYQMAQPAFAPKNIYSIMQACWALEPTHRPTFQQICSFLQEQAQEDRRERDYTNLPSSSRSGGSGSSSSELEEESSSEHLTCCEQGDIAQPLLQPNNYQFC
From the text: Each sample was at 5% DMSO.

B-Raf V600E = B-Raf V600E (Homo sapiens, UniProt P15056, V600E); assay: B-Raf V600E kinase activity assay; format: biochemical; details: under the test conditions employed; read-out: IC50 toward kinase B-Raf V600E
B-Raf V600E, sequence (P15056 whole entry V600E): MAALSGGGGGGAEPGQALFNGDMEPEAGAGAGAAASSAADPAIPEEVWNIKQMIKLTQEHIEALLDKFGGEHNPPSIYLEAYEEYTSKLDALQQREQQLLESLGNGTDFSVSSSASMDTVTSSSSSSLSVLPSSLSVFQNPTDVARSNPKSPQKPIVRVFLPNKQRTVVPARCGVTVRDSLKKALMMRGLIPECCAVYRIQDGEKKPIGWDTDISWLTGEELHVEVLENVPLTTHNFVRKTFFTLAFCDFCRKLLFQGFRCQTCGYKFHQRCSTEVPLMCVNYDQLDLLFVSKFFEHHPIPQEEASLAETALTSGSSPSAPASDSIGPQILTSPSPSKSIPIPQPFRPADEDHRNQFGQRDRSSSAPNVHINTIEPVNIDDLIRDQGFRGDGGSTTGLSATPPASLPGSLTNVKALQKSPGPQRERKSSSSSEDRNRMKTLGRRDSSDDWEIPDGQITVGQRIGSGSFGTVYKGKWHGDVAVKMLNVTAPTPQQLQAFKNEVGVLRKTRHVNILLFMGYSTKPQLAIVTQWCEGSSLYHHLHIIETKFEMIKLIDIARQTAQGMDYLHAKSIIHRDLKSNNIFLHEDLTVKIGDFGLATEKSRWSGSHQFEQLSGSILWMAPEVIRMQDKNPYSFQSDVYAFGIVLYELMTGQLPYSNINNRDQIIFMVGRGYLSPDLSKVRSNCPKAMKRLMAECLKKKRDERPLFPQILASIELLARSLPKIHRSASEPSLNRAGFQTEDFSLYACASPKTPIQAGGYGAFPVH

Flt1 = Flt1 (Homo sapiens, UniProt P17948); assay: Flt1 kinase activity assay; format: biochemical; details: under the test conditions employed; read-out: IC50 toward kinase Flt1
Flt1, sequence (P17948 27-1338): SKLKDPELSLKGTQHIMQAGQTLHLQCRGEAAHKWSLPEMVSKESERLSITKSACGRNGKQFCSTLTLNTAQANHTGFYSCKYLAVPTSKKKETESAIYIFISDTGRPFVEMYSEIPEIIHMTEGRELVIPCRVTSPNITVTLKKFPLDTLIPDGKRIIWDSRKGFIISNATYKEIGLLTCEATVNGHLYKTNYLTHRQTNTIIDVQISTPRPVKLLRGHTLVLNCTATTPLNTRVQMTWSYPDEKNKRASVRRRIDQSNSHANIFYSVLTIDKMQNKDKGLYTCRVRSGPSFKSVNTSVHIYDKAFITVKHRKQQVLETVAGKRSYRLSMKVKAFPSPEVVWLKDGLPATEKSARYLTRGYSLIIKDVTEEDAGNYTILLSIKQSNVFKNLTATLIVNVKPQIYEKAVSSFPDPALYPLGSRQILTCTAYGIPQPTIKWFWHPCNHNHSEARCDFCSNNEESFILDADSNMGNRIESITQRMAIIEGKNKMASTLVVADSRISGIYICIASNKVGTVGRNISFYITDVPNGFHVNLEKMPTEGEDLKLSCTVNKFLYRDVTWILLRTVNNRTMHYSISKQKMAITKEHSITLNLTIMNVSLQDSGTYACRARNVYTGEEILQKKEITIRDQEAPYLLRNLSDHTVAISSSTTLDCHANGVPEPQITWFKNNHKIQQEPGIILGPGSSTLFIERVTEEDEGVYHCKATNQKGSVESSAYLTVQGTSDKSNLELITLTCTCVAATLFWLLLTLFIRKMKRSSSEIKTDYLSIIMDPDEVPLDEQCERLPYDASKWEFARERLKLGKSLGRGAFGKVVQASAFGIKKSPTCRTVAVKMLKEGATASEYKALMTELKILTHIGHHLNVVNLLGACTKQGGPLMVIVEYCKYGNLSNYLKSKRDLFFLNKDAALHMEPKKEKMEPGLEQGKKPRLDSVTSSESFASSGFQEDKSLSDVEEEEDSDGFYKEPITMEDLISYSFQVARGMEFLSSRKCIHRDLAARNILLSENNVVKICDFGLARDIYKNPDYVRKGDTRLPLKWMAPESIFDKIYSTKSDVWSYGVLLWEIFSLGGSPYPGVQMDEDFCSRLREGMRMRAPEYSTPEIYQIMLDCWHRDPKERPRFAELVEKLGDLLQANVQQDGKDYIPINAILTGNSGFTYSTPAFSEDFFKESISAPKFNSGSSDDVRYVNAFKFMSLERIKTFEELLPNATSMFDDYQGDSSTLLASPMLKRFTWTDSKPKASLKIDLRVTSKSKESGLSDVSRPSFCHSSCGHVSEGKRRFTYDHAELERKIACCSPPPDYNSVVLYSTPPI

B-Raf = B-Raf (Homo sapiens, UniProt P15056); assay: B-Raf kinase activity assay; format: biochemical; details: under the test conditions employed; read-out: IC50 toward kinase B-Raf
B-Raf, sequence (P15056 whole entry): as the sequence (P15056 whole entry V600E) above, with E600V counted along it

TrkA = molecular target: T3, TrkA (Homo sapiens, UniProt P04629); assay: TrkA biochemical assay (AlphaScreen); details: under the test conditions employed; read-out: IC50 toward kinase TrkA
T3 construct: purchased Upstate Biotech 14-571
Experimental: Compounds tested were dissolved in DMSO (1 μL) and added to a white 384-well plate (Costar #3705). […] Each sample was at 5% DMSO. The plate was then incubated for 40 minutes at room temperature.

HGK = HGK (Homo sapiens, UniProt O95819); assay: HGK (MAP4K4) biochemical assay (AlphaScreen); details: under the test conditions employed; read-out: IC50 toward kinase HGK
HGK, sequence (O95819 whole entry): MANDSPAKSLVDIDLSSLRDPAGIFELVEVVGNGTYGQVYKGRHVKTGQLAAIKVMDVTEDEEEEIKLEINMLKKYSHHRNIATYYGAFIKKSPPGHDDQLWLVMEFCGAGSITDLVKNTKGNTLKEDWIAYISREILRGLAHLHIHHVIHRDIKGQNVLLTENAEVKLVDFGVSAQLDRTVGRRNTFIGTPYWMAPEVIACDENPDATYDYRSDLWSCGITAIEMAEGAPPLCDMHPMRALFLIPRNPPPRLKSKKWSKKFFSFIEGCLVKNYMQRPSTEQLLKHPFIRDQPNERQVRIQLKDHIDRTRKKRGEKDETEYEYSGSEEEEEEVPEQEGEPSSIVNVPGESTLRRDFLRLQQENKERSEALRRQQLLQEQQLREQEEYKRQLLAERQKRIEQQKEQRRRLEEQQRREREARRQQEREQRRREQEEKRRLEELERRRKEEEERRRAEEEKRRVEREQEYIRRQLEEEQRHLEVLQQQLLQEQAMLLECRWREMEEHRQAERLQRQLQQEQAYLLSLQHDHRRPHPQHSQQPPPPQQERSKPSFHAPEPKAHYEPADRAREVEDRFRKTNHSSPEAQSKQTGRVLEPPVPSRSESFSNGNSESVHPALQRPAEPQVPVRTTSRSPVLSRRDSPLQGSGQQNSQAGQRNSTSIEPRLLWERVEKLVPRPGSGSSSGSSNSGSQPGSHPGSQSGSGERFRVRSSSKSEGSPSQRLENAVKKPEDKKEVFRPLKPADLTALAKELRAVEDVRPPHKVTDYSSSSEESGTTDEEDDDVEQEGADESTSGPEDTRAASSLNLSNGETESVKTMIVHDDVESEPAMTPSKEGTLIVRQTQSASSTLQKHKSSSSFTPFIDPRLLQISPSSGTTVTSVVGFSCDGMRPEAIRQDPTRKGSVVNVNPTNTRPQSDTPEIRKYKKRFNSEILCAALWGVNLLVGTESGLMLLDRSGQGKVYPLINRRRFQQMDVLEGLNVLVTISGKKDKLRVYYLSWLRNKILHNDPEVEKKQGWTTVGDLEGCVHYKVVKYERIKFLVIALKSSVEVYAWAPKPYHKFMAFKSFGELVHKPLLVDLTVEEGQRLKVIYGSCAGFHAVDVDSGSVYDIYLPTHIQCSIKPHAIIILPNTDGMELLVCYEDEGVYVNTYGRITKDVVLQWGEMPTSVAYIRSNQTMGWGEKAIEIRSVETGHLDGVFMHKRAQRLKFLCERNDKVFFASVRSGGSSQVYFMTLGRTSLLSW
Experimental: Substrate was 10 nM biotin-ERM (T567/T564/T558, Cell Signaling, Inc., cat#1344). MAP4K4 kinase was at 0.5 ng per sample. After incubation of the kinase reaction for 40 min at room temperature, 5 μl of donor beads and protein A acceptor beads (Perkin Elmer Life Science, cat#67606017) at final concentration 1 μg/ml in stop buffer (20 mM Tris, pH 7.4, 200 mM Nacl, 100 mM EDTA, 0.03% BSA) was added, along with Phospho-ERM Antibody (T567/T564/T558, Cell Signaling, Inc., cat#3141) at 1:1000 dilution. […] Phosphorylated substrate results in binding of the antibody which binds to protein A acceptor bead and association of the donor and acceptor beads is such that the signal correlates with kinase activity.

Kdr = Kdr (Homo sapiens, UniProt P35968); assay: Kdr kinase activity assay; format: biochemical; details: under the test conditions employed; read-out: IC50 toward kinase Kdr

Measured: IC50

Clc1ccc(COc2ccc(Cc3c[nH]c4ncccc34)cc2)cc1 [P-1462, 3-[4-(4-Chloro-benzyloxy)-benzyl]-1H-pyrrolo[2,3-b]pyridine]
≤ 10 µM: Kit | Fms | B-Raf V600E | Flt1

COc1cnc2[nH]cc(Cc3ccc(OCc4ccc(Cl)cc4)c(OC)c3)c2c1 [P-1531, 3-[4-(4-Chloro-benzyloxy)-3-methoxy-benzyl]-5-methoxy-1H-pyrrolo[2,3-b]pyridine]
≤ 10 µM: Kit | B-Raf V600E | Flt1

COc1cc(Cc2c[nH]c3ncccc23)ccc1OCc1ccc(Cl)cc1Cl [P-1568, 3-[4-(2,4-Dichloro-benzyloxy)-3-methoxy-benzyl]-1H-pyrrolo[2,3-b]pyridine]
≤ 10 µM: Kit | B-Raf | Fms | B-Raf V600E

COc1cc(Cc2c[nH]c3ncccc23)ccc1OCc1ccccc1 [P-1613, 3-(4-benzyloxy-3-methoxy-benzyl)-1H-pyrrolo[2,3-b]pyridine]
≤ 10 µM: B-Raf | Fms | B-Raf V600E | Flt1

COc1cc(Cc2c[nH]c3ncccc23)cc(Cl)c1OCc1ccc(Cl)cc1 [P-1616, 3-[3-Chloro-4-(4-chloro-benzyloxy)-5-methoxy-benzyl]-1H-pyrrolo[2,3-b]pyridine]
≤ 10 µM: B-Raf | Fms

COc1cc(Cc2c[nH]c3ncccc23)ccc1OCc1ccc(C(F)(F)F)cc1 [P-1721, 3-[3-Methoxy-4-(4-trifluoromethyl-benzyloxy)-benzyl]-1H-pyrrolo[2,3-b]pyridine]
≤ 10 µM: B-Raf | Fms | B-Raf V600E

Clc1ccc(COc2ccc(Cl)c(Cc3c[nH]c4ncccc34)c2Cl)cc1 [P-1768, 3-[2,6-Dichloro-3-(4-chloro-benzyloxy)-benzyl]-1H-pyrrolo[2,3-h]pyridine]
≤ 10 µM: B-Raf | Fms | B-Raf V600E

O=C(c1c(Cl)ccc(OCc2ccc(Cl)cc2)c1Cl)c1c[nH]c2ncccc12 [P-1769, [2,6-Dichloro-3-(4-chloro-benzyloxy)-phenyl]-(1-pyrrolo[2,3-b]pyridin-3-yl)methanone]
≤ 10 µM: B-Raf | Fms | B-Raf V600E

O=C(c1c(F)ccc(OCc2ccccc2)c1F)c1c[nH]c2ncccc12 [P-1802, (3-Benzyloxy-2,6-difluoro-phenyl)-(1H-pyrrolo[2,3-b]pyridin-3-yl)-methanone]
≤ 10 µM: B-Raf | Fms | B-Raf V600E

O=C(c1c(F)ccc(OCc2ccccc2)c1F)c1c[nH]c2ncc(Cl)cc12 [P-1825, (3-Benzyloxy-2,6-difluoro-phenyl)-(5-chloro-1H-pyrrolo[2,3-b]pyridin-3-yl)-methanone]
≤ 10 µM: B-Raf

Fc1cc(OCc2nc3ccccc3[nH]2)c(F)cc1Cc1c[nH]c2ncc(Cl)cc12 [P-2100, 2-[4-(5-Chloro-1H-pyrrolo[2,3-b]pyridin-3-ylmethyl)-2,5-difluoro-phenoxymethyl]-1H-benzoimidazole]
not listed: Flt1
≤ 10 µM: all other assays above

COc1cnc2[nH]cc(Cc3cc(F)c(OCc4nc5ccccc5[nH]4)cc3F)c2c1 [P-2101, 2-[2,5-Difluoro-4-(5-methoxy-1H-pyrrolo[2,3-b]pyridin-3-ylmethyl)-phenoxymethyl]-1H-benzoimidazole]
not listed: B-Raf V600E | B-Raf
≤ 10 µM: all other assays above

Fc1cc(OCc2nc3ccccc3[nH]2)cc(F)c1Cc1c[nH]c2ncc(Cl)cc12 [P-2105, 2-[4-(5-Chloro-1H-pyrrolo[2,3-b]pyridin-3-ylmethyl)-3,5-difluoro-phenoxymethyl]-1H-benzoimidazole]
≤ 10 µM: Kit | HGK | Kdr | Fms

COc1cnc2[nH]cc(Cc3cc(F)c(OCc4nc5ccccc5[nH]4)cc3Cl)c2c1 [P-2114, 2-[5-Chloro-2-fluoro-4-(5-methoxy-1H-pyrrolo[2,3-b]pyridin-3-ylmethyl)-phenoxymethyl]-1H-benzoimidazole]
≤ 10 µM: Kit | TrkA | HGK | Kdr | Fms

Cn1cc(-c2cnc3[nH]cc(Cc4c(F)ccc(OCC(F)(F)F)c4Cl)c3c2)cn1 [P-2146, 3-[2-Chloro-6-fluoro-3-(2,2,2-trifluoro-ethoxy)-benzyl]-5-(1-methyl-1H-pyrazol-4-yl)-1H-pyrrolo[2,3-b]pyridine]
not listed: B-Raf V600E | B-Raf
≤ 10 µM: all other assays above

COc1cnc2[nH]cc(Cc3c(F)ccc(OCC(F)(F)F)c3Cl)c2c1 [P-2147, 3-[2-Chloro-6-fluoro-3-(2,2,2-trifluoro-ethoxy)-benzyl]-5-methoxy-1H-pyrrolo[2,3-b]pyridine]
≤ 10 µM: Kdr | Fms

COc1cnc2[nH]cc(C(=O)c3c(F)ccc(OCC(F)(F)F)c3Cl)c2c1 [P-2149, [2-Chloro-6-fluoro-3-(2,2,2-trifluoro-ethoxy)-phenyl]-(5-methoxy-1H-pyrrolo[2,3-b]pyridin-3-yl)-methanone]
≤ 10 µM: Kit | HGK | Kdr | Fms | Flt1

O=C(c1c(F)ccc(OCC(F)(F)F)c1Cl)c1c[nH]c2ncccc12 [P-2150, [2-Chloro-6-fluoro-3-(2,2,2-trifluoro-ethoxy)-phenyl]-(1H-pyrrolo[2,3-b]pyridin-3-yl)-methanone]
≤ 10 µM: Kdr | Fms

COc1cnc2[nH]cc(Cc3c(Cl)ccc(OCC(F)(F)F)c3Cl)c2c1 [P-2153, 3-[2,6-Dichloro-3-(2,2,2-trifluoro-ethoxy)-benzyl]-5-methoxy-1H-pyrrolo[2,3-b]pyridine]
≤ 10 µM: Kdr | Fms

COCCOc1ccc(F)c(Cc2c[nH]c3ncccc23)c1Cl [P-2158, 3-[2-Chloro-6-fluoro-3-(2-methoxy-ethoxy)-benzyl]-1H-pyrrolo[2,3-b]pyridine]
≤ 10 µM: Kit | Kdr | Fms

COc1cc(Cc2c[nH]c3ncc(Cl)cc23)c(Cl)cc1OCc1ccc(Cl)cc1F [P-2167, 5-Chloro-3-[2-chloro-4-(4-chloro-2-fluoro-benzyloxy)-5-methoxy-benzyl]-1H-pyrrolo[2,3-b]pyridine]
≤ 10 µM: Kit | Kdr | Fms

CS(=O)(=O)c1cnc2[nH]cc(Cc3cc(F)c(OCc4nc5ccccc5[nH]4)cc3F)c2c1 [P-2170, 2-[2,5-Difluoro-4-(5-methanesulfonyl-1H-pyrrolo[2,3-b]pyridin-3-ylmethyl)-phenoxymethyl]-1H-benzoimidazole]
≤ 10 µM: TrkA | HGK | B-Raf | Fms | Flt1

COc1cc(Cc2c[nH]c3ncc(Cl)cc23)c(F)cc1OCc1nc2cc(S(=O)(=O)N(C)C)ccc2[nH]1 [P-2173, 2-[4-(5-Chloro-1H-pyrrolo[2,3-b]pyridin-3-ylmethyl)-5-fluoro-2-methoxy-phenoxymethyl]-1H-benzoimidazole-5-sulfonic acid dimethylamide]
≤ 10 µM: Kit | TrkA | HGK | B-Raf | Fms

COCCOc1cnc2[nH]cc(Cc3cc(F)c(OCc4nc5ccccc5[nH]4)cc3F)c2c1 [P-2176, 2-{2,5-Difluoro-4-[5-(2-methoxy-ethoxy)-1H-pyrrolo[2,3-b]pyridin-3-ylmethyl]-phenoxymethyl}-1H-benzoimidazole]
≤ 10 µM: Kit | TrkA | HGK | Kdr | Fms

COc1cc(Cc2c[nH]c3ncc(S(C)(=O)=O)cc23)c(F)cc1OCc1nc2ccccc2[nH]1 [P-2186, 2-[5-Fluoro-4-(5-methanesulfonyl-1H-pyrrolo[2,3-b]pyridin-3-ylmethyl)-2-methoxy-phenoxymethyl]-1H-benzoimidazole]
≤ 10 µM: TrkA | HGK | B-Raf | Fms | B-Raf V600E
